Data taken from the supplement of paper PMC9663587.

What was measured:
Assay in all cases: GRmax, 72 h; higher = less effect;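 further: breast cell lines in 384-well plates, nine doses across a 10^4 range, Dye Drop imaging of viable cells vs DMSO and time-zero plates, GR 0 means no net growth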
[1] = test system: MCF10A (GM)
[2] = test system: HCC1428
[3] = test system: HCC1500
[4] = test system: MDAMB157

In the case of `COc1ccc2c(c1)[C@]1(C[C@H]1c1ccc3c(/C=C/c4ccc(CN5C[C@@H](C)O[C@@H](C)C5)cc4)n[nH]c3c1)C(=O)N2`, the “GRmax, 72 h” value [1] is reported as 0.0912 GR.

With `COc1cccc(OCCCN)c1-c1cc(Nc2cnc(C#N)cn2)n[nH]1` the “GRmax, 72 h” value [1] was 0.322 GR.

`CCCCOc1c(C(=O)c2c(F)cc(C)cc2F)c[nH]c2nncc1-2` (max 10 µM) was tested, and the “GRmax, 72 h” value [1] was 0.106 GR.

For `CNc1nc(-c2ccc3c(N)n[nH]c3c2)cc(N2C[C@@H](C(=O)NC3CCCCC3)CC[C@H]2C)n1` (max 10 µM), the “GRmax, 72 h” value [1] was 0.857 GR.

With `CO[C@@H](C)Cn1c(=O)n(C)c2cnc3ccc(-c4cncc(C(C)(C)O)c4)cc3c21` (max 10 µM) the “GRmax, 72 h” value [1] was 0.0552 GR.

`C=CCn1c(=O)c2cnc(Nc3ccc(N4CCN(C)CC4)cc3)nc2n1-c1cccc(C(C)(C)O)n1` [AZD1775] (max 10 µM) was tested, and the “GRmax, 72 h” value [1] was 0.0319 GR.

`CNC(=O)c1cccc(-c2ccc3c(N4CCOC[C@@H]4C)nc(N4CCOC[C@@H]4C)nc3n2)c1` [AZD2014] (max 10 µM) was tested, and the “GRmax, 72 h” value [1] was 0.211 GR.

For `NC1(C(=O)N[C@@H](CCO)c2ccc(Cl)cc2)CCN(c2nc[nH]c3nccc2-3)CC1` [AZD5363] (max 10 µM), the “GRmax, 72 h” value [1] was 0.641 GR.

In the case of `C[C@@H]1COCCN1c1cc(C2([S@](C)(=N)=O)CC2)nc(-c2cc[nH]c3nccc2-3)n1` [AZD6738] (max 10 µM), the “GRmax, 72 h” value [1] is reported as 0.226 GR.

With `CN(C)C/C=C/C(=O)Nc1ccc(O[C@@H]2CCC[C@@H](Nc3ncc(Cl)c(-c4c[nH]c5ccccc45)n3)C2)cc1` [BSJ-01-175] (max 10 µM) the “GRmax, 72 h” value [1] was -0.356 GR.

`CC(=O)c1c(C)c2cnc(Nc3ccc(N4CCN(CCOCCOCCOCCNC(=O)COc5cccc6c5C(=O)N(C5CCC(=O)NC5=O)C6=O)CC4)cn3)nc2n(C2CCCC2)c1=O` (centres undefined) [BSJ-03-123] (max 10 µM) was tested, and the “GRmax, 72 h” value [1] was -0.17 GR.

With `CC(C)Nc1cc(-c2c[nH]c(C(=O)N[C@H](CO)c3cccc(Cl)c3)c2)c(Cl)cn1` [BVD523] (max 10 µM) the “GRmax, 72 h” value [1] was 0.225 GR.

In the case of `CCC(=O)Nc1ccc(C(=O)Nc2ccc(Nc3ncc4c(n3)N(C)c3ccc(C)cc3C(=O)N4C)cc2)cc1` [FMF-03-145-1], the “GRmax, 72 h” value [1] is reported as 0.0984 GR.

`COc1cc(N2CCN(C)CC2)ccc1Nc1ncc2c(n1)N(C)c1ccccc1C(=O)N2CC(F)(F)F` [FMF-03-146-1] was tested, and the “GRmax, 72 h” value [1] was 0.977 GR.

`CN1CC[C@H](c2c(O)cc(O)c3c(=O)cc(-c4ccccc4Cl)oc23)[C@H](O)C1` [Flavopiridol] (max 1 µM) was tested, and the “GRmax, 72 h” value [1] was -0.307 GR.

With `CC(C)n1nc(-c2ccc3oc(N)nc3c2)c2c(N)ncnc21` [INK128/MLN0128] (max 3.162 µM) the “GRmax, 72 h” value [2] was -0.0001 GR, the “GRmax, 72 h” value [3] was -0.469 GR and the “GRmax, 72 h” value [4] was -0.0331 GR.

With `CC(C)NC[C@@H](C(=O)N1CCN(c2ncnc3c2[C@H](C)C[C@H]3O)CC1)c1ccc(Cl)cc1` [Ipatasertib/GDC0068] (max 10 µM) the “GRmax, 72 h” value [2] was 0.991 GR, the “GRmax, 72 h” value [3] was 1.08 GR and the “GRmax, 72 h” value [4] was 0.596 GR.

With `CN(C)C(=O)c1cc2cnc(Nc3ccc(N4CCNCC4)cn3)nc2n1C1CCCC1` [LEE011/Ribociclib] (max 10 µM) the “GRmax, 72 h” value [1] was 0.519 GR.

For `CCNC(=O)c1noc(-c2cc(C(C)C)c(O)cc2O)c1-c1ccc(CN2CCOCC2)cc1` [Luminespib/NVP-AUY922] (max 1 µM), the “GRmax, 72 h” value [2] was -0.0043 GR, the “GRmax, 72 h” value [3] was -0.224 GR and the “GRmax, 72 h” value [4] was -0.049 GR.

With `CCOc1cc2ncc(C#N)c(Nc3ccc(OCc4ccccn4)c(Cl)c3)c2cc1NC(=O)/C=C/CN(C)C` [Neratinib/HKI272] (max 3.162 µM) the “GRmax, 72 h” value [2] was -0.0412 GR, the “GRmax, 72 h” value [3] was -0.287 GR and the “GRmax, 72 h” value [4] was 0.117 GR.

With `O=C(c1cc(Cc2n[nH]c(=O)c3ccccc23)ccc1F)N1CCN(C(=O)C2CC2)CC1` [Olaparib/AZD2281] (max 10 µM) the “GRmax, 72 h” value [2] was 0.118 GR, the “GRmax, 72 h” value [3] was 0.274 GR and the “GRmax, 72 h” value [4] was 0.158 GR.

In the case of `CC(=O)O[C@H]1C(=O)[C@@]2(C)[C@H]([C@H](OC(=O)c3ccccc3)[C@]3(O)C[C@H](OC(=O)[C@H](O)[C@@H](NC(=O)c4ccccc4)c4ccccc4)C(C)=C1C3(C)C)[C@]1(OC(C)=O)CO[C@@H]1C[C@@H]2O` [Paclitaxel] (max 1 µM), the “GRmax, 72 h” value [2] is reported as 0.0645 GR, the “GRmax, 72 h” value [3] is reported as -0.0589 GR and the “GRmax, 72 h” value [4] is reported as -0.67 GR.

`CS(=O)(=O)N1CCN(Cc2cc3nc(-c4cccc5[nH]ncc45)nc(N4CCOCC4)c3s2)CC1` [Pictilisib/GDC0941] (max 10 µM) was tested, and the “GRmax, 72 h” value [2] was 0.192 GR, the “GRmax, 72 h” value [3] was -0.132 GR and the “GRmax, 72 h” value [4] was 0.187 GR.

For `O=C1NC(=NCc2cccs2)SC1=Cc1ccc2ncccc2c1` [R0-3306] (max 10 µM), the “GRmax, 72 h” value [1] was -0.0351 GR.

In the case of `CNCc1ccc(-c2[nH]c3cc(F)cc4c3c2CCNC4=O)cc1` [Rucaparib] (max 10 µM), the “GRmax, 72 h” value [1] is reported as 0.882 GR.

With `CC1(N)CCN(c2cnc(-c3cccc(Cl)c3Cl)c(N)n2)CC1` [SHP099] (max 10 µM) the “GRmax, 72 h” value [1] was 0.738 GR.

With `CN1CCN(CCOc2cc(OC3CCOCC3)c3c(Nc4c(Cl)ccc5c4OCO5)ncnc3c2)CC1` [Saracatinib/AZD0530] (max 10 µM) the “GRmax, 72 h” value [2] was 0.669 GR, the “GRmax, 72 h” value [3] was -0.197 GR and the “GRmax, 72 h” value [4] was 0.355 GR.

`Cc1cc(C(C)Nc2ccccc2)c2nc(N3CCOCC3)cc(=O)n2c1` (centres undefined) [TGX221] (max 10 µM) was tested, and the “GRmax, 72 h” value [2] was 0.769 GR, the “GRmax, 72 h” value [3] was 0.503 GR and the “GRmax, 72 h” value [4] was 0.824 GR.

In the case of `CN(C)C/C=C/C(=O)Nc1ccc(C(=O)Nc2cccc(Nc3ncc(Cl)c(-c4c[nH]c5ccccc45)n3)c2)cc1` [THZ1] (max 1 µM), the “GRmax, 72 h” value [1] is reported as -0.267 GR.

In the case of `CN(C)C/C=C/C(=O)Nc1ccc(C(=O)N2CCC[C@@H](Nc3ncc(Cl)c(-c4c[nH]c5ccccc45)n3)C2)cc1` [THZ531] (max 1 µM), the “GRmax, 72 h” value [1] is reported as -0.28 GR.

With `CN(C)C/C=C/C(=O)Nc1ccc(C(=O)Nc2cccc(Nc3cc(-c4c[nH]c5ccccc45)ncn3)c2)cc1` [THZ-P1-2] (max 10 µM) the “GRmax, 72 h” value [1] was -0.164 GR.

`Cc1nc(-c2cn3c(n2)-c2ccc(-c4cnn(C(C)(C)C(N)=O)c4)cc2OCC3)n(C(C)C)n1` [Taselisib/GDC0032] (max 10 µM) was tested, and the “GRmax, 72 h” value [2] was 0.173 GR, the “GRmax, 72 h” value [3] was -0.233 GR and the “GRmax, 72 h” value [4] was 0.211 GR.

For `O=C1NC(=O)[C@@H](c2cn3c4c(cccc24)CCC3)[C@@H]1c1c[nH]c2ccccc12` [Tivantinib/ARQ197] (max 10 µM), the “GRmax, 72 h” value [2] was 0.0341 GR, the “GRmax, 72 h” value [3] was -0.33 GR and the “GRmax, 72 h” value [4] was -0.482 GR.

With `CC[C@@]1(O)C(=O)OCc2c1cc1n(c2=O)Cc2cc3c(CN(C)C)c(O)ccc3nc2-1` [Topotecan] (max 10 µM) the “GRmax, 72 h” value [2] was -0.376 GR, the “GRmax, 72 h” value [3] was -0.801 GR and the “GRmax, 72 h” value [4] was -0.833 GR.

In the case of `Nc1ccc(-c2ccc3ncc4ccc(=O)n(-c5cccc(C(F)(F)F)c5)c4c3c2)cn1` [Torin2] (max 1 µM), the “GRmax, 72 h” value [2] is reported as -0.0145 GR, the “GRmax, 72 h” value [3] is reported as -0.497 GR and the “GRmax, 72 h” value [4] is reported as -0.216 GR.

For `CC[C@@H]1C(=O)N(C)c2cnc(Nc3ccc(C(=O)N[C@H]4CC[C@H](N5CCN(CC6CC6)CC5)CC4)cc3OC)nc2N1C(C)C` [Volasertib/BI6727] (max 1 µM), the “GRmax, 72 h” value [2] was -0.0388 GR, the “GRmax, 72 h” value [3] was 0.286 GR and the “GRmax, 72 h” value [4] was -0.664 GR.

With `O=C(CCCCCCC(=O)Nc1ccccc1)NO` [Vorinostat] (max 10 µM) the “GRmax, 72 h” value [2] was -0.479 GR, the “GRmax, 72 h” value [3] was -0.596 GR and the “GRmax, 72 h” value [4] was -0.413 GR.

`C=CC(=O)Nc1ccc(C(=O)Nc2[nH]nc3c2CN(C(=O)N[C@H](CN(C)C)c2ccccc2)C3(C)C)cc1` [YKL-5-124] (max 10 µM) was tested, and the “GRmax, 72 h” value [1] was -0.141 GR.

With `CN1CCN(C(=O)c2ccc3cc(CCNc4ncnc5ccc(C#N)cc45)ccc3c2)CC1` [senexin b] (max 10 µM) the “GRmax, 72 h” value [1] was 0.893 GR.
